Source: patent publication US9169241B2, “Quinolinyloxyphenylsulfonamides” (Max-Planck-Gesellschaft Zur Forderung der Wissenschaften …, priority 2009, dated 2015)
Where two headings read alike, the source gives them in different places.

How the values were obtained:
Assay type in all cases: cell-based
A172 = test: Cell vitality assay (ATP assay, CellTiter-Glo); conditions: Homo sapiens, A 172; A172, 72 h; Table IIa; read-out: IC50 ATP-Assay after 72 h A172
Procedure, shortened: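 Luminescent ATP read-out of viable cells; IC50 = concentration at which ATP falls to 50% of DMSO control. Cells seeded at 1000/well, treated 72 h with seven concentrations from 0.195 to 12.5 μM.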

viable cells in culture = test: Cell viability assay at 10 μM (CellTiter-Glo, Table VII); conditions: compound 10 μM, 72 h;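 further: graded A 0-20%; B 21-40%; C 41-60%; D over 60% viable cells relative to DMSO control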
Procedure, shortened: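 Cells were seeded at 1000 cells/well in 96-well plates in 100 μl culture medium and incubated for 72 h with 10 μM compound or a DMSO control. ATP content, which reflects metabolically active and therefore viable cells, was then determined by CellTiter-Glo luminescence (Promega) per the manufacturer's instructions and expressed relative to the DMSO control.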

C8161 = test: Apoptosis assay (Cellomics, nucleus condensation); conditions: Homo sapiens, Table III, read-out: Apoptosis induction in C8161
Procedure, shortened: (§1)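 Readout: per-nucleus Hoechst 33342 fluorescence intensity and its population variation, plus number of detected cells, by automated CCD imaging. Live cells, 5000/well; compound 0.39–12.5 μM (twofold series) vs DMSO, read at 24 h and 48 h.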

SF763 = test: Apoptosis assay (Cellomics, nucleus condensation); conditions: Table III, read-out: Apoptosis induction in SF763
Procedure, shortened: as §1

U118 = test: Apoptosis assay (Cellomics, nucleus condensation); conditions: Table III, read-out: Apoptosis induction in U118
Procedure, shortened: as §1

SF126 = test: Apoptosis assay (Cellomics, nucleus condensation); conditions: Homo sapiens, SF-126, Table III, read-out: Apoptosis induction in SF126
Procedure, shortened: as §1

Hs578T = test: Apoptosis assay (Cellomics, nucleus condensation); conditions: Homo sapiens, Hs-578T, Table III, read-out: Apoptosis induction in Hs578T
Procedure, shortened: as §1

U138 = test: Apoptosis assay (Cellomics, nucleus condensation); conditions: Table III, read-out: Apoptosis induction in U138
Procedure, shortened: as §1

tumor cell = test: Matrigel outgrowth assay/branching assay (Table Va)
Procedure, shortened: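 Invasive outgrowth into a 3 mg/ml Matrigel gel is judged from images taken after 48, 72 and 96 h of exposure to 3.125, 1.56 or 0.78 μM compound, with DMSO as control. Positive means total inhibition of branching.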

**Q.** With `COc1cc2c(Oc3ccc(NS(=O)(=O)c4ccccc4OC(F)(F)F)cc3F)ccnc2cc1OCCCN1CCCC(C)C1` (stereo not drawn) [Example 45, N-(3-Fluoro-4-{6-methoxy-7-[3-(3-methyl-piperidin-1-yl)-propoxy]-quinolin-4-yloxy}-phenyl)-2-trifluoromethoxy-benzenesulfonamide] as the compound, how does the IC50 (A172) read?
**A.** The IC50 was no more than 12.5 µM.

**Q.** `COc1cc2c(Oc3ccc(NS(=O)(=O)c4ccc(F)c(F)c4F)cc3F)ccnc2cc1OCCCN1CCCC(C)C1` (stereo not drawn) [Example 49, 2,3,4-Trifluoro-N-(3-fluoro-4-{6-methoxy-7-[3-(3-methyl-piperidin-1-yl)-propoxy]-quinolin-4-yloxy}-phenyl)-benzenesulfonamide] was tested. Which IC50 (A172) did it give?
**A.** Its IC50 is no more than 12.5 µM.

**Q.** Which IC50 (A172) does the source give for `COc1cc2c(Oc3ccc(NS(=O)(=O)c4c(Cl)cccc4Cl)cc3F)ccnc2cc1OCCCN1CCCC(C)C1` (stereo not drawn) [Example 51, 2,6-Dichloro-N-(3-fluoro-4-{6-methoxy-7-[3-(3-methyl-piperidin-1-yl)-propoxy]-quinolin-4-yloxy}-phenyl)-benzenesulfonamide] here?
**A.** The IC50 was no more than 12.5 µM.

**Q.** `COc1cc2c(Oc3ccc(NS(=O)(=O)c4cccc(Cl)c4F)cc3F)ccnc2cc1OCCCN1CCCC(C)C1` (stereo not drawn) [Example 54, 3-Chloro-2-fluoro-N-(3-fluoro-4-{6-methoxy-7-[3-(3-methyl-piperidin-1-yl)-propoxy]-quinolin-4-yloxy}-phenyl)-benzenesulfonamide] was tested. Which IC50 (A172) did it give?
**A.** Its IC50 is no more than 12.5 µM.

**Q.** With `COc1cc2c(Oc3ccc(NS(=O)(=O)c4ccccc4OC(F)(F)F)cc3F)ccnc2cc1OCCCN1CCCCC1` [Example 78, N-{3-Fluoro-4-[6-methoxy-7-(3-piperidin-1-yl-propoxy)-quinolin-4-yloxy]-phenyl}-2-trifluoromethoxy-benzenesulfonamide] as the compound, how does the IC50 (A172) read?
**A.** The IC50 was no more than 12.5 µM.

**Q.** With `COc1cc2c(Oc3ccc(NS(=O)(=O)c4ccccc4C(F)(F)F)cc3F)ccnc2cc1OCCCN(C)C` [Example 100, N-{4-[7-(3-Dimethylamino-propoxy)-6-methoxy-quinolin-4-yloxy]-3-fluoro-phenyl}-2-trifluoromethyl-benzenesulfonamide] as the compound, how does the viability at 10 µM (viable cells in culture; Homo sapiens, HCT-116, HCT116 def, read-out: percentage (%) of viable cells HCT 116def) read?
**A.** The viability at 10 µM was 0 to 20%.

**Q.** What about the viability at 10 µM (viable cells in culture; Homo sapiens, HCT-116, HCT116 wt, read-out: percentage (%) of viable cells HCT 116wt) of the same compound?
**A.** Its viability at 10 µM is 0 to 20%.

**Q.** And the viability at 10 µM (viable cells in culture; Homo sapiens, HT-29, HT29, read-out: percentage (%) of viable cells HT29)?
**A.** The viability at 10 µM was 21 to 40%.

**Q.** And the viability at 10 µM (viable cells in culture; Homo sapiens, NCI-H358, H358, read-out: percentage (%) of viable cells H358)?
**A.** The viability at 10 µM was 0 to 20%.

**Q.** And the viability at 10 µM (viable cells in culture; Homo sapiens, NCI-H1650, H1650, read-out: percentage (%) of viable cells H1650)?
**A.** Its viability at 10 µM is 21 to 40%.

**Q.** What about the viability at 10 µM (viable cells in culture; Homo sapiens, NCI-H1666, H1666, read-out: percentage (%) of viable cells H1666) of the same compound?
**A.** Its viability at 10 µM is 21 to 40%.

**Q.** What about the viability at 10 µM (viable cells in culture; Homo sapiens, NCI-H1975, H1975, read-out: percentage (%) of viable cells H1975) of the same compound?
**A.** The viability at 10 µM was 41 to 60%.

**Q.** What about the viability at 10 µM (viable cells in culture; Homo sapiens, NCI-H1993, H1993, read-out: percentage (%) of viable cells H1993) of the same compound?
**A.** Its viability at 10 µM is 41 to 60%.

**Q.** What about the viability at 10 µM (viable cells in culture; Homo sapiens, A549, read-out: percentage (%) of viable cells A549) of the same compound?
**A.** The viability at 10 µM was greater than 60%.

**Q.** What about the viability at 10 µM (viable cells in culture; Homo sapiens, HCC827, read-out: percentage (%) of viable cells HCC827) of the same compound?
**A.** The viability at 10 µM was 21 to 40%.

**Q.** And the viability at 10 µM (viable cells in culture; Homo sapiens, SW480, read-out: percentage (%) of viable cells SW480)?
**A.** Its viability at 10 µM is 0 to 20%.

**Q.** What about the viability at 10 µM (viable cells in culture; RKO, read-out: percentage (%) of viable cells RKO) of the same compound?
**A.** Its viability at 10 µM is 0 to 20%.

**Q.** What about the IC50 (C8161) of the same compound?
**A.** Its IC50 is no more than 12.5 µM.

**Q.** What about the IC50 (SF763) of the same compound?
**A.** The IC50 was no more than 12.5 µM.

**Q.** What about the IC50 (U118) of the same compound?
**A.** The IC50 was 12.5 to 50 µM.

**Q.** What about the IC50 (SF126) of the same compound?
**A.** Its IC50 is no more than 12.5 µM.

**Q.** What about the IC50 (Hs578T) of the same compound?
**A.** Its IC50 is no more than 12.5 µM.

**Q.** And the IC50 (U138)?
**A.** The IC50 was no more than 12.5 µM.

**Q.** What about the IC50 (tumor cell; Homo sapiens, C8161 cells, read-out: Total branching inhibition in Matrigel C8161) of the same compound?
**A.** Its IC50 is no more than 5 µM.

**Q.** What about the IC50 (tumor cell; Homo sapiens, Hs-578T, Hs578T cells, read-out: Total branching inhibition in Matrigel Hs578T) of the same compound?
**A.** The IC50 was no more than 5 µM.

**Q.** And the IC50 (tumor cell; U118 cells, read-out: Total branching inhibition in Matrigel U118)?
**A.** The IC50 was no more than 5 µM.

**Q.** And the IC50 (tumor cell; U138 cells, read-out: Total branching inhibition in Matrigel U138)?
**A.** The IC50 was 5 to 50 µM.

**Q.** What about the IC50 (A172) of the same compound?
**A.** Its IC50 is no more than 12.5 µM.

**Q.** For `COc1cc2c(Oc3ccc(NS(=O)(=O)c4c(Cl)cccc4Cl)cc3F)ccnc2cc1OCCN1CCOCC1` [Example 104, 2,6-Dichloro-N-{3-fluoro-4-[6-methoxy-7-(2-morpholin-4-yl-ethoxy)-quinolin-4-yloxy]-phenyl}-benzenesulfonamide], which IC50 (A172) is on record?
**A.** Its IC50 is 12.5 to 50 µM.

**Q.** Which IC50 (A172) does the source give for `COc1cc2c(Oc3ccc(NS(=O)(=O)c4c(F)cccc4F)cc3F)ccnc2cc1OCCCN1CCN(C)CC1` [Example 110, 2,6-Difluoro-N-(3-fluoro-4-{6-methoxy-7-[3-(4-methyl-piperazin-1-yl)-propoxy]-quinolin-4-yloxy}-phenyl)-benzenesulfonamide] here?
**A.** The IC50 was no more than 12.5 µM.

**Q.** For `COc1cc2c(Oc3ccc(NS(=O)(=O)c4cc(F)ccc4F)cc3Cl)ccnc2cc1OCCCN1CCN(C)CC1` [Example 112, N-(3-Chloro-4-{6-methoxy-7-[3-(4-methyl-piperazin-1-yl)-propoxy]-quinolin-4-yloxy}-phenyl)-2,5-difluoro-benzenesulfonamide], which IC50 (A172) is on record?
**A.** Its IC50 is no more than 12.5 µM.

**Q.** With `COc1cc2c(Oc3ccc(NS(=O)(=O)c4c(Cl)cccc4Cl)cc3Cl)ccnc2cc1OCCCN1CCN(C)CC1` [Example 119, 2,6-Dichloro-N-(3-chloro-4-{6-methoxy-7-[3-(4-methyl-piperazin-1-yl)-propoxy]-quinolin-4-yloxy}-phenyl)-benzenesulfonamide] as the compound, how does the IC50 (A172) read?
**A.** The IC50 was no more than 12.5 µM.

**Q.** For `COC(=O)c1sccc1S(=O)(=O)Nc1ccc(Oc2ccnc3cc(OCCCN4CCCCC4)c(OC)cc23)c(F)c1` [Example 155, 3-{3-Fluoro-4-[6-methoxy-7-(3-piperidin-1-yl-propoxy)-quinolin-4-yloxy]-phenylsulfamoyl}-thiophene-2-carboxylic acid methyl ester], which IC50 (A172) is on record?
**A.** Its IC50 is no more than 12.5 µM.

**Q.** How did the IC50 (A172) turn out when `COC(=O)c1sccc1S(=O)(=O)Nc1ccc(Oc2ccnc3cc(OCCCN4CCC(C)CC4)c(OC)cc23)c(F)c1` [Example 156, 3-(3-Fluoro-4-{6-methoxy-7-[3-(4-methyl-piperidin-1-yl)-propoxy]-quinolin-4-yloxy}-phenylsulfamoyl)-thiophene-2-carboxylic acid methyl ester] was run?
**A.** Its IC50 is no more than 12.5 µM.

**Q.** With `COC(=O)c1sccc1S(=O)(=O)Nc1ccc(Oc2ccnc3cc(OCCCN4CCOCC4)c(OC)cc23)c(F)c1` [Example 157, 3-{3-Fluoro-4-[6-methoxy-7-(3-morpholin-4-yl-propoxy)-quinolin-4-yloxy]-phenylsulfamoyl}-thiophene-2-carboxylic acid methyl ester] as the compound, how does the IC50 (A172) read?
**A.** Its IC50 is no more than 12.5 µM.

**Q.** `COC(=O)c1sccc1S(=O)(=O)Nc1ccc(Oc2ccnc3cc(OCCCN4CCN(C)CC4)c(OC)cc23)c(F)c1` [Example 158, 3-(3-Fluoro-4-{6-methoxy-7-[3-(4-methyl-piperazin-1-yl)-propoxy]-quinolin-4-yloxy}-phenylsulfamoyl)-thiophene-2-carboxylic acid methyl ester] was tested. Which IC50 (A172) did it give?
**A.** Its IC50 is no more than 12.5 µM.

**Q.** With `COc1cc2c(Oc3ccc(NS(=O)(=O)c4c(F)cccc4F)cc3F)ccnc2cc1OCCCN(C)C` [Example 178, N-{4-[7-(3-Dimethylamino-propoxy)-6-methoxy-quinolin-4-yloxy]-3-fluoro-phenyl}-2,6-difluoro-benzenesulfonamide] as the compound, how does the IC50 (A172) read?
**A.** Its IC50 is no more than 12.5 µM.

**Q.** Which IC50 (A172) does the source give for `COc1cc2c(Oc3ccc(NS(=O)(=O)c4ccccc4OC(F)(F)F)cc3F)ccnc2cc1OCCCN(C)C` [Example 179, N-{4-[7-(3-Dimethylamino-propoxy)-6-methoxy-quinolin-4-yloxy]-3-fluoro-phenyl}-2-trifluoromethoxy-benzenesulfonamide] here?
**A.** Its IC50 is no more than 12.5 µM.

**Q.** How did the IC50 (A172) turn out when `COc1cc2c(Oc3ccc(NS(=O)(=O)c4c(Cl)cccc4Cl)cc3F)ccnc2cc1OCCCN(C)C` [Example 181, 2,6-Dichloro-N-{4-[7-(3-dimethylamino-propoxy)-6-methoxy-quinolin-4-yloxy]-3-fluoro-phenyl}-benzenesulfonamide] was run?
**A.** The IC50 was no more than 12.5 µM.

**Q.** `COC(=O)c1sccc1S(=O)(=O)Nc1ccc(Oc2ccnc3cc(OCCCN(C)C)c(OC)cc23)c(F)c1` [Example 184, 3-{4-[7-(3-Dimethylamino-propoxy)-6-methoxy-quinolin-4-yloxy]-3-fluoro-phenylsulfamoyl}-thiophene-2-carboxylic acid methyl ester] was tested. Which IC50 (A172) did it give?
**A.** The IC50 was no more than 12.5 µM.

**Q.** `COc1cc2c(Oc3c(Cl)cc(NS(=O)(=O)c4c(F)cccc4F)cc3Cl)ccnc2cc1OCCCN1CCC(C)CC1` [Example 209, N-(3,5-Dichloro-4-{6-methoxy-7-[3-(4-methyl-piperidin-1-yl)-propoxy]-quinolin-4-yloxy}-phenyl)-2,6-difluoro-benzenesulfonamide] was tested. Which IC50 (A172) did it give?
**A.** Its IC50 is no more than 12.5 µM.

**Q.** How did the IC50 (A172) turn out when `COc1cc2c(Oc3c(Cl)cc(NS(=O)(=O)c4ccccc4C(F)(F)F)cc3Cl)ccnc2cc1OCCCN1CCC(C)CC1` [Example 210, N-(3,5-Dichloro-4-{6-methoxy-7-[3-(4-methyl-piperidin-1-yl)-propoxy]-quinolin-4-yloxy}-phenyl)-2-trifluoromethyl-benzenesulfonamide] was run?
**A.** The IC50 was no more than 12.5 µM.
